Measured values published in ChEMBL document CHEMBL3351749, “Synthesis, in vitro antimicrobial and cytotoxic activities of new carbazole derivatives of ursolic acid” (Bioorg Med Chem Lett, 2015).
Converted amounts (≈) assume the structure as drawn.

Tests used:
Staphylococcus aureus = test: Antimicrobial activity against Staphylococcus aureus CGMCC1.1361 after 24 hrs by modified microdilution method; assay type: functional; details: CGMCC1.1361, 24 h
Bacillus subtilis = test: Antimicrobial activity against Bacillus subtilis CGMCC1.1162 after 24 hrs by modified microdilution method; assay type: functional; details: CGMCC1.1162, 24 h
Escherichia coli = test: Antimicrobial activity against Escherichia coli CGMCC1.1571 after 24 hrs by modified microdilution method; assay type: functional; details: CGMCC1.1571, 24 h
[1] = Cytotoxicity against human […] cells assessed as cell survival after 48 hrs by MTT assay; assay type: functional, cell-based
HepG2 = test: Cytotoxicity against human HepG2 cells assessed as cell survival after 48 hrs by MTT assay; assay type: functional, cell-based; details: HepG2, 48 h
Candida tropicalis = test: Antimicrobial activity against Candida tropicalis CGMCC2.3967 after 48 hrs by modified microdilution method; assay type: functional; details: CGMCC2.3967, 48 h
Candida albicans = test: Antimicrobial activity against Candida albicans CGMCC2.2086 after 48 hrs by modified microdilution method; assay type: functional; details: CGMCC2.2086, 48 h
Aspergillus niger = test: Antimicrobial activity against Aspergillus niger CGMCC3.316 after 48 hrs by modified microdilution method; assay type: functional; details: CGMCC3.316, 48 h
Pseudomonas fluorescens = test: Antimicrobial activity against Pseudomonas fluorescens CGMCC1.1828 after 24 hrs by modified microdilution method; assay type: functional; details: CGMCC1.1828, 24 h

Compound	MIC (Staphylococcus aureus)	MIC (Bacillus subtilis)	MIC (Escherichia coli)	IC50 [1]	IC50 (HepG2)	MIC (Candida tropicalis)	MIC (Candida albicans)	MIC (Aspergillus niger)	MIC (Pseudomonas fluorescens)
COC(=O)[C@]12CC[C@@H](C)[C@H](C)[C@H]1C1=CC[C@@H]3[C@@]4(C)Cc5c([nH]c6c(OC)cccc56)C(C)(C)[C@@H]4CC[C@@]3(C)[C@]1(C)CC2	31.2 µg/mL (≈ 54.6 µM)	31.2 µg/mL (≈ 54.6 µM)	> 100 µg/mL	> 100 µM	> 100 µM	> 100 µg/mL	> 100 µg/mL	> 100 µg/mL	> 100 µg/mL
CCOc1ccc2[nH]c3c(c2c1)C[C@]1(C)[C@H]2CC=C4[C@@H]5[C@@H](C)[C@H](C)CC[C@]5(C(=O)OC)CC[C@@]4(C)[C@]2(C)CC[C@H]1C3(C)C	31.2 µg/mL (≈ 53.3 µM)	31.2 µg/mL (≈ 53.3 µM)	> 100 µg/mL	> 100 µM	> 100 µM	> 100 µg/mL	> 100 µg/mL	> 100 µg/mL	62.5 µg/mL (≈ 107 µM)
C[C@H]1[C@H](C)CC[C@]2(C(=O)NCCCN(C)C)CC[C@]3(C)C(=CC[C@@H]4[C@@]5(C)Cc6c([nH]c7ccccc67)C(C)(C)[C@@H]5CC[C@]43C)[C@H]12	15.6 µg/mL (≈ 25.5 µM)	7.8 µg/mL (≈ 12.7 µM)	15.6 µg/mL (≈ 25.5 µM)	2.12 µM	2.78 µM	62.5 µg/mL (≈ 102 µM)	31.2 µg/mL (≈ 51 µM)	31.2 µg/mL (≈ 51 µM)	31.2 µg/mL (≈ 51 µM)
C[C@H]1[C@H](C)CC[C@]2(C(=O)NCCCN(C)C)CC[C@]3(C)C(=CC[C@@H]4[C@@]5(C)Cc6c([nH]c7ccc(F)cc67)C(C)(C)[C@@H]5CC[C@]43C)[C@H]12	7.8 µg/mL (≈ 12.4 µM)	3.9 µg/mL (≈ 6.19 µM)	7.8 µg/mL (≈ 12.4 µM)	4.6 µM	6.03 µM	31.2 µg/mL (≈ 49.5 µM)	31.2 µg/mL (≈ 49.5 µM)	31.2 µg/mL (≈ 49.5 µM)	7.8 µg/mL (≈ 12.4 µM)
C[C@H]1[C@H](C)CC[C@]2(C(=O)NCCCN(C)C)CC[C@]3(C)C(=CC[C@@H]4[C@@]5(C)Cc6c([nH]c7ccc(Cl)cc67)C(C)(C)[C@@H]5CC[C@]43C)[C@H]12	7.8 µg/mL (≈ 12.1 µM)	15.6 µg/mL (≈ 24.1 µM)	15.6 µg/mL (≈ 24.1 µM)	2.78 µM	4.02 µM	62.5 µg/mL (≈ 96.7 µM)	62.5 µg/mL (≈ 96.7 µM)	31.2 µg/mL (≈ 48.3 µM)	31.2 µg/mL (≈ 48.3 µM)
C[C@H]1[C@H](C)CC[C@]2(C(=O)NCCCN(C)C)CC[C@]3(C)C(=CC[C@@H]4[C@@]5(C)Cc6c([nH]c7ccc(Br)cc67)C(C)(C)[C@@H]5CC[C@]43C)[C@H]12	31.2 µg/mL (≈ 45.2 µM)	31.2 µg/mL (≈ 45.2 µM)	31.2 µg/mL (≈ 45.2 µM)	6.8 µM	5.65 µM	62.5 µg/mL (≈ 90.5 µM)	> 100 µg/mL	62.5 µg/mL (≈ 90.5 µM)	15.6 µg/mL (≈ 22.6 µM)
COc1ccc2[nH]c3c(c2c1)C[C@]1(C)[C@H]2CC=C4[C@@H]5[C@@H](C)[C@H](C)CC[C@]5(C(=O)NCCCN(C)C)CC[C@@]4(C)[C@]2(C)CC[C@H]1C3(C)C	31.2 µg/mL (≈ 48.6 µM)	15.6 µg/mL (≈ 24.3 µM)	31.2 µg/mL (≈ 48.6 µM)	12.8 µM	11.4 µM	62.5 µg/mL (≈ 97.4 µM)	62.5 µg/mL (≈ 97.4 µM)	31.2 µg/mL (≈ 48.6 µM)	31.2 µg/mL (≈ 48.6 µM)
COc1cccc2c3c([nH]c12)C(C)(C)[C@@H]1CC[C@]2(C)[C@H](CC=C4[C@@H]5[C@@H](C)[C@H](C)CC[C@]5(C(=O)NCCCN(C)C)CC[C@]42C)[C@@]1(C)C3	62.5 µg/mL (≈ 97.4 µM)	31.2 µg/mL (≈ 48.6 µM)	31.2 µg/mL (≈ 48.6 µM)	36.2 µM	88.8 µM	> 100 µg/mL	> 100 µg/mL	> 100 µg/mL	31.2 µg/mL (≈ 48.6 µM)
CCOc1ccc2[nH]c3c(c2c1)C[C@]1(C)[C@H]2CC=C4[C@@H]5[C@@H](C)[C@H](C)CC[C@]5(C(=O)NCCCN(C)C)CC[C@@]4(C)[C@]2(C)CC[C@H]1C3(C)C	62.5 µg/mL (≈ 95.3 µM)	31.2 µg/mL (≈ 47.6 µM)	31.2 µg/mL (≈ 47.6 µM)	4.88 µM	6.25 µM	> 100 µg/mL	> 100 µg/mL	> 100 µg/mL	62.5 µg/mL (≈ 95.3 µM)
NCC[C@H](O)C(=O)N[C@@H]1C[C@H](N)[C@@H](O[C@H]2O[C@H](CN)[C@@H](O)[C@H](O)[C@H]2O)[C@H](O)[C@H]1O[C@H]1O[C@H](CO)[C@@H](O)[C@H](N)[C@H]1O [AMIKACIN]	0.9 µg/mL (≈ 1.54 µM)	0.9 µg/mL (≈ 1.54 µM)	1.9 µg/mL (≈ 3.24 µM)						0.9 µg/mL (≈ 1.54 µM)
COc1cccc2c1C(=O)c1c(O)c3c(c(O)c1C2=O)C[C@@](O)(C(=O)CO)C[C@@H]3O[C@H]1C[C@H](N)[C@H](O)[C@H](C)O1 [DOXORUBICIN]				0.62 µM	0.77 µM				
CC(=O)N1CCN(c2ccc(OCC3COC(Cn4ccnc4)(c4ccc(Cl)cc4Cl)O3)cc2)CC1 (stereo not given) [KETOCONAZOLE]						3.9 µg/mL (≈ 7.34 µM)	3.9 µg/mL (≈ 7.34 µM)	7.8 µg/mL (≈ 14.7 µM)	
